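Following 48 hours of exposure in 96-well plates, responses at five concentrations were used to interpolate endpoints linearly. GI50 marks 50% less growth.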 Active and inactive are the calls of the source. Cut-off read from the data, not from the text of the source: active = GI50 up to about 1.1 µM and inactive = higher.
What was measured:
Assay in all cases: inhibition of tumour cell growth, NCI panel, 48 h
SNB-19 = system: SNB-19
NCI-H522 = system: NCI-H522
ACHN = system: ACHN
HT-29 = system: HT-29
HCC 2998 = system: HCC 2998
SF-295 = system: SF-295
M14 = system: M14
OVCAR-5 = system: OVCAR-5
RXF 631 = system: RXF 631
NCI-H460 = system: NCI-H460
NCI-H23 = system: NCI-H23
DMS-114 = system: DMS-114
A549 = system: A549
MOLT-4 = system: MOLT-4
SK-MEL-5 = system: SK-MEL-5
SF-268 = system: SF-268
RPMI-8226 = system: RPMI-8226
UACC-62 = system: UACC-62
UACC-257 = system: UACC-257
786-0 = system: 786-0
OVCAR-8 = system: OVCAR-8
HL-60 = system: HL-60
IGROV-1 = system: IGROV-1
U-251 = system: U-251
SK-MEL-28 = system: SK-MEL-28
M19-MEL = system: M19-MEL
TK-10 = system: TK-10
CAKI-1 = system: CAKI-1
HCT-116 = system: HCT-116
OVCAR-3 = system: OVCAR-3
SK-MEL-2 = system: SK-MEL-2
EKVX = system: EKVX
DLD-1 = system: DLD-1
RXF 393 = system: RXF 393
K562 = system: K562
LOX IMVI = system: LOX IMVI
XF498 = system: XF498
KM12 = system: KM12
DMS-273 = system: DMS-273
HOP-62 = system: HOP-62
A498 = system: A498
UO-31 = system: UO-31
HOP-18 = system: HOP-18
LXFL 529 = system: LXFL 529
SW-620 = system: SW-620
COLO 205 = system: COLO 205
SN12C = system: SN12C
OVCAR-4 = system: OVCAR-4
HOP-92 = system: HOP-92
MCF7 = system: MCF7
SF-539 = system: SF-539
SK-OV-3 = system: SK-OV-3
SNB-78 = system: SNB-78
KM-20L2 = system: KM-20L2
Malme-3M = system: Malme-3M
NCI/ADR-RES = system: NCI/ADR-RES
NCI-H226 = system: NCI-H226
CCRF-CEM = system: CCRF-CEM
SNB-75 = system: SNB-75
HCT-15 = system: HCT-15
SR = system: SR

C=CC1(C)CC(=O)C2(O)C(C)(O1)C(OC(C)=O)C(O)C1C(C)(C)CCC(O)C12C (configuration not stated)
GI50 (SNB-19): > 150 µM (inactive) | GI50 (NCI-H522): 132 µM (inactive) | GI50 (ACHN): > 100 µM (inactive) | GI50 (HT-29): 49.8 µM (inactive) | GI50 (HCC 2998): > 146 µM (inactive) | GI50 (SF-295): > 142 µM (inactive) | GI50 (M14): > 100 µM (inactive) | GI50 (OVCAR-5): 4.84 µM (inactive) | GI50 (RXF 631): > 100 µM (inactive) | GI50 (NCI-H460): 89.1 µM (inactive) | GI50 (NCI-H23): 115 µM (inactive) | GI50 (DMS-114): 52.8 µM (inactive) | GI50 (A549): > 150 µM (inactive) | GI50 (MOLT-4): 28.6 µM (inactive) | GI50 (SK-MEL-5): 89.3 µM (inactive) | GI50 (SF-268): > 128 µM (inactive) | GI50 (RPMI-8226): 27.1 µM (inactive) | GI50 (UACC-62): 69.7 µM (inactive) | GI50 (UACC-257): > 150 µM (inactive) | GI50 (786-0): > 100 µM (inactive) | GI50 (OVCAR-8): > 76.4 µM (inactive) | GI50 (HL-60): 42.1 µM (inactive) | GI50 (IGROV-1): 47.3 µM (inactive) | GI50 (U-251): 71 µM (inactive) | GI50 (SK-MEL-28): > 150 µM (inactive) | GI50 (M19-MEL): 104 µM (inactive) | GI50 (TK-10): 1.45 µM (inactive) | GI50 (CAKI-1): 1.37 µM (inactive) | GI50 (HCT-116): 128 µM (inactive) | GI50 (OVCAR-3): > 150 µM (inactive) | GI50 (SK-MEL-2): > 143 µM (inactive) | GI50 (EKVX): > 150 µM (inactive) | GI50 (DLD-1): > 150 µM (inactive) | GI50 (RXF 393): 7.62 µM (inactive) | GI50 (K562): > 150 µM (inactive) | GI50 (LOX IMVI): 60.8 µM (inactive) | GI50 (XF498): 61.8 µM (inactive) | GI50 (KM12): 0.863 µM (active) | GI50 (DMS-273): > 139 µM (inactive) | GI50 (HOP-62): 59.7 µM (inactive) | GI50 (A498): > 150 µM (inactive) | GI50 (UO-31): 30.5 µM (inactive) | GI50 (HOP-18): 41.3 µM (inactive) | GI50 (LXFL 529): > 100 µM (inactive) | GI50 (SW-620): > 150 µM (inactive) | GI50 (COLO 205): 104 µM (inactive) | GI50 (SN12C): 30.6 µM (inactive) | GI50 (OVCAR-4): > 54.8 µM (inactive) | GI50 (HOP-92): > 150 µM (inactive) | GI50 (MCF7): 81.7 µM (inactive) | GI50 (SF-539): 33.1 µM (inactive) | GI50 (SK-OV-3): 29.7 µM (inactive) | GI50 (SNB-78): 5.4 µM (inactive) | GI50 (KM-20L2): 110 µM (inactive) | GI50 (Malme-3M): > 150 µM (inactive) | GI50 (NCI/ADR-RES): 70.6 µM (inactive) | GI50 (NCI-H226): 3.41 µM (inactive) | GI50 (CCRF-CEM): 22.2 µM (inactive) | GI50 (SNB-75): 52 µM (inactive) | GI50 (HCT-15): > 150 µM

N#C/N=C(\N)NCCO
GI50 (SNB-19): > 100 µM (inactive) | GI50 (NCI-H522): > 100 µM (inactive) | GI50 (ACHN): > 100 µM (inactive) | GI50 (HT-29): > 100 µM (inactive) | GI50 (HCC 2998): > 100 µM (inactive) | GI50 (SF-295): > 100 µM (inactive) | GI50 (M14): > 100 µM (inactive) | GI50 (OVCAR-5): > 100 µM (inactive) | GI50 (RXF 631): > 100 µM (inactive) | GI50 (NCI-H460): > 100 µM (inactive) | GI50 (NCI-H23): > 100 µM (inactive) | GI50 (DMS-114): 75.3 µM (inactive) | GI50 (A549): > 100 µM (inactive) | GI50 (MOLT-4): > 100 µM (inactive) | GI50 (SK-MEL-5): > 100 µM (inactive) | GI50 (SF-268): > 100 µM (inactive) | GI50 (RPMI-8226): > 100 µM (inactive) | GI50 (UACC-62): > 100 µM (inactive) | GI50 (UACC-257): > 100 µM (inactive) | GI50 (786-0): 38.1 µM (inactive) | GI50 (OVCAR-8): > 100 µM (inactive) | GI50 (HL-60): > 100 µM (inactive) | GI50 (IGROV-1): > 100 µM (inactive) | GI50 (U-251): 37.2 µM (inactive) | GI50 (SK-MEL-28): > 100 µM (inactive) | GI50 (M19-MEL): 40.3 µM (inactive) | GI50 (TK-10): > 100 µM (inactive) | GI50 (CAKI-1): > 100 µM (inactive) | GI50 (HCT-116): > 100 µM (inactive) | GI50 (OVCAR-3): > 100 µM (inactive) | GI50 (SK-MEL-2): > 100 µM (inactive) | GI50 (EKVX): > 100 µM (inactive) | GI50 (DLD-1): > 100 µM (inactive) | GI50 (RXF 393): 16.6 µM (inactive) | GI50 (K562): > 100 µM (inactive) | GI50 (XF498): > 100 µM (inactive) | GI50 (KM12): > 100 µM (inactive) | GI50 (DMS-273): > 100 µM (inactive) | GI50 (HOP-62): > 100 µM (inactive) | GI50 (A498): > 100 µM (inactive) | GI50 (UO-31): > 100 µM (inactive) | GI50 (HOP-18): > 100 µM (inactive) | GI50 (LXFL 529): > 100 µM (inactive) | GI50 (SW-620): 18.3 µM (inactive) | GI50 (COLO 205): 52.2 µM (inactive) | GI50 (SN12C): > 100 µM (inactive) | GI50 (OVCAR-4): > 100 µM (inactive) | GI50 (HOP-92): > 100 µM (inactive) | GI50 (SF-539): > 100 µM (inactive) | GI50 (SK-OV-3): > 100 µM (inactive) | GI50 (SNB-78): > 100 µM (inactive) | GI50 (KM-20L2): > 100 µM (inactive) | GI50 (Malme-3M): > 100 µM (inactive) | GI50 (SR): 30.7 µM (inactive) | GI50 (NCI-H226): > 100 µM (inactive) | GI50 (SNB-75): > 100 µM (inactive) | GI50 (HCT-15): 38.7 µM
